What was measured:
[1] = biological target: Isocitrate dehydrogenase [NADP], mitochondrial (Homo sapiens, UniProt P48735, R140Q); assay: Inhibition of IDH2 R140Q mutant (unknown origin) using alpha-ketoglutarate as substrate preincubated with compound for 16 hrs followed by substrate addition and measured after 1 hr in presence of NADPH by fluorescence based analysis
[2] = Inhibition of IDH1 R132H mutant in human U-87 MG cells incubated for 72 hrs by measuring 2-HG production by fluorescence based analysis; type: functional, cell-based, U-87MG ATCC
[3] = Inhibition of IDH2 R140Q mutant in human U-87 MG cells incubated for 72 hrs by measuring 2-HG production by fluorescence based analysis; type: functional, cell-based, U-87MG ATCC
[4] = Apparent permeability across basolateral to apical side in human Caco-2 cells at 10 uM incubated for 1 hrs by LC-MS/MS analysis
[5] = Apparent permeability across apical to basolateral side in human Caco-2 cells at 10 uM incubated for 1 hrs by LC-MS/MS analysis
[6] = Metabolic stability in male SD rat liver microsomes assessed as parent compound remaining at 1 uM measured after 30 mins in presence of NADPH by LC-MS analysis; type: ADME, Microsome; details: Sprague-Dawley, read-out: Stability
[7] = Metabolic stability in male ICR mouse liver microsomes assessed as parent compound remaining at 1 uM measured after 30 mins in presence of NADPH by LC-MS analysis; type: ADME, Microsome; details: read-out: Stability

Isocitrate dehydrogenase [NADP], mitochondrial, sequence (P48735 40-452 R140Q limits assumed): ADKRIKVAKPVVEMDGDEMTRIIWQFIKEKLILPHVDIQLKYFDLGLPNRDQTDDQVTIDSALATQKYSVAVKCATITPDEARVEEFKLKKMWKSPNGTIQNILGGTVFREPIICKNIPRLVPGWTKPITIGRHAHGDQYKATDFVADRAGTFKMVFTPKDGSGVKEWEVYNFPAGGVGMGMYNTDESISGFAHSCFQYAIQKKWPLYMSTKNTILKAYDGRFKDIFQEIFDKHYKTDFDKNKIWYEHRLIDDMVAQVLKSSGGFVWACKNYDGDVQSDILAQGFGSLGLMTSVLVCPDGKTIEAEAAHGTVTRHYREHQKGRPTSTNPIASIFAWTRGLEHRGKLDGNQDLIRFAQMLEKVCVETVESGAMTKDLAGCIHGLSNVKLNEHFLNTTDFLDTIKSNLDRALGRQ

C[C@@H](Nc1nc(N[C@H](C)C(F)(F)F)nc(C2=C(F)C(O)C3(CC2)CC3)n1)C(F)(F)F (mixture of isomers)
IC50 [1]: 222 nM | IC50 ([2]; Homo sapiens, U-87 MG, 72 h): 3230 nM | IC50 ([3]; Homo sapiens, U-87 MG, 72 h): 707 nM

C[C@@H](Nc1nc(N[C@H](C)C(F)(F)F)nc(C2=C(F)C(O)CCC2)n1)C(F)(F)F (mixture of isomers)
IC50 [1]: 54 nM | Papp B→A at 1 h, 10 µM [4]: 15.5 ×10⁻⁶ cm/s | Papp A→B at 1 h, 10 µM [5]: 68.6 ×10⁻⁶ cm/s | remaining at 0.5 h, 1 µM [6]: 99% | IC50 ([2]; Homo sapiens, U-87 MG, 72 h): 365 nM | IC50 ([3]; Homo sapiens, U-87 MG, 72 h): 137 nM | remaining at 0.5 h, 1 µM [7]: 83.8%

CC(C)Nc1nc(N[C@H](C)C(F)(F)F)nc(C(C)c2ccccc2)n1 (mixture of isomers)
IC50 [1]: 337 nM

CCCNc1nc(N[C@H](C)C(F)(F)F)nc(C2=CC(O)CCC2)n1 (mixture of isomers)
IC50 [1]: 35 nM | IC50 ([3]; Homo sapiens, U-87 MG, 72 h): 174 nM

CC(C)CNc1nc(N[C@H](C)C(F)(F)F)nc(C2=CC(O)CCC2)n1 (mixture of isomers)
IC50 [1]: 21 nM | IC50 ([2]; Homo sapiens, U-87 MG, 72 h): 2470 nM | IC50 ([3]; Homo sapiens, U-87 MG, 72 h): 100 nM

CC(C)Nc1nc(N[C@H](C)C(F)(F)F)nc(C2=CC(F)CCC2)n1 (mixture of isomers)
IC50 [1]: 43 nM | Papp B→A at 1 h, 10 µM [4]: 5.2 ×10⁻⁶ cm/s | Papp A→B at 1 h, 10 µM [5]: 5.1 ×10⁻⁶ cm/s | remaining at 0.5 h, 1 µM [6]: 25.1% | IC50 ([3]; Homo sapiens, U-87 MG, 72 h): 181 nM | remaining at 0.5 h, 1 µM [7]: 16.8%

CC(C)Nc1nc(N[C@H](C)C(F)(F)F)nc(C2=CCC(F)CC2)n1 (mixture of isomers)
IC50 [1]: 162 nM

CC(C)Nc1nc(N[C@H](C)C(F)(F)F)nc(C2=CCCC(O)C2)n1 (mixture of isomers)
IC50 [1]: 1780 nM

COC1C=C(c2nc(N[C@H](C)C(F)(F)F)nc(N[C@H](C)C(F)(F)F)n2)CCC1 (stereo partly specified)
IC50 [1]: 1030 nM | IC50 ([3]; Homo sapiens, U-87 MG, 72 h): 2390 nM

C[C@@H](Nc1nc(N[C@H](C)C(F)(F)F)nc(C2=C(F)[C@H](O)CCC2)n1)C(F)(F)F
Papp B→A at 1 h, 10 µM [4]: 26 ×10⁻⁶ cm/s | Papp A→B at 1 h, 10 µM [5]: 60 ×10⁻⁶ cm/s | IC50 ([2]; Homo sapiens, U-87 MG, 72 h): 3260 nM | IC50 ([3]; Homo sapiens, U-87 MG, 72 h): 1020 nM

CC(C)Nc1nc(N[C@H](C)C(F)(F)F)nc(C2=CC(O)CC2)n1 (mixture of isomers)
IC50 [1]: 85 nM | IC50 ([3]; Homo sapiens, U-87 MG, 72 h): 1670 nM

C=C(C)c1nc(NC(C)C)nc(N[C@H](C)C(F)(F)F)n1
IC50 [1]: 710 nM | IC50 ([3]; Homo sapiens, U-87 MG, 72 h): > 10000 nM

CC(C)Nc1nc(N[C@H](C)C(F)(F)F)nc(C2=CCCC2)n1
IC50 [1]: 83 nM | IC50 ([3]; Homo sapiens, U-87 MG, 72 h): 1420 nM

CC(C)C(=O)Nc1nc(N[C@H](C)C(F)(F)F)nc(C2=CC(O)CCC2)n1 (mixture of isomers)
IC50 [1]: 262 nM | IC50 ([3]; Homo sapiens, U-87 MG, 72 h): 1540 nM

CC(C)Nc1nc(N[C@H](C)C(F)(F)F)nc(C2=CCC(O)CC2)n1 (mixture of isomers)
IC50 [1]: > 3000 nM

C[C@@H](Nc1nc(NCC(C)(C)O)nc(C2=CC(O)CCC2)n1)C(F)(F)F (mixture of isomers)
IC50 [1]: 1200 nM | IC50 ([3]; Homo sapiens, U-87 MG, 72 h): 2800 nM

C[C@@H](Nc1nc(N[C@H](C)C(F)(F)F)nc(C2=C(F)C(O)C(F)(F)CC2)n1)C(F)(F)F (stereo in doubt; 42)
IC50 [1]: 145 nM | IC50 ([2]; u-87mg atcc): 1890 nM | IC50 ([3]; u-87mg atcc): 845 nM

C[C@H](Nc1nc(N[C@H](C)C(F)(F)F)nc(C2=C(F)C(O)C(F)(F)CC2)n1)C(F)(F)F (stereo partly specified)
IC50 [1]: 166 nM | IC50 ([2]; Homo sapiens, U-87 MG, 72 h): 1030 nM | IC50 ([3]; Homo sapiens, U-87 MG, 72 h): 156 nM

COCCNc1nc(N[C@H](C)C(F)(F)F)nc(C2=CC(O)CCC2)n1 (mixture of isomers)
IC50 [1]: > 3000 nM

CNC1C=C(c2nc(N[C@H](C)C(F)(F)F)nc(N[C@H](C)C(F)(F)F)n2)CCC1 (stereo partly specified)
IC50 [1]: > 3000 nM

CC(C)Nc1nc(N[C@H](C)C(F)(F)F)nc(C2=C[C@H](O)CCC2)n1
IC50 [1]: 794 nM | IC50 ([3]; Homo sapiens, U-87 MG, 72 h): 999 nM

C[C@@H](Nc1nc(NC2CCCCC2)nc(C2=CC(O)CCC2)n1)C(F)(F)F (mixture of isomers)
IC50 [1]: 43 nM | IC50 ([3]; Homo sapiens, U-87 MG, 72 h): 296 nM

CC(C)Nc1nc(N[C@H](C)C(F)(F)F)nc(C2=C[C@@H](O)CCC2)n1
IC50 [1]: 16 nM | Papp B→A at 1 h, 10 µM [4]: 34.1 ×10⁻⁶ cm/s | Papp A→B at 1 h, 10 µM [5]: 55.4 ×10⁻⁶ cm/s | remaining at 0.5 h, 1 µM [6]: 65% | IC50 ([2]; Homo sapiens, U-87 MG, 72 h): 372 nM | IC50 ([3]; Homo sapiens, U-87 MG, 72 h): 67 nM | remaining at 0.5 h, 1 µM [7]: 48.1%

CC(C)Nc1nc(N[C@H](C)C(F)(F)F)nc(C2=CC(F)(F)CCC2)n1
IC50 [1]: 23 nM | Papp B→A at 1 h, 10 µM [4]: 4 ×10⁻⁶ cm/s | Papp A→B at 1 h, 10 µM [5]: 2.2 ×10⁻⁶ cm/s | IC50 ([3]; Homo sapiens, U-87 MG, 72 h): 504 nM

C[C@@H](Nc1nc(N[C@H](C)C(F)(F)F)nc(C2=CC(O)CCC2)n1)C(F)(F)F (mixture of isomers)
IC50 [1]: 35 nM | Papp B→A at 1 h, 10 µM [4]: 28.6 ×10⁻⁶ cm/s | Papp A→B at 1 h, 10 µM [5]: 44.9 ×10⁻⁶ cm/s | remaining at 0.5 h, 1 µM [6]: 79.8% | IC50 ([2]; Homo sapiens, U-87 MG, 72 h): 434 nM | IC50 ([3]; Homo sapiens, U-87 MG, 72 h): 86 nM | remaining at 0.5 h, 1 µM [7]: 58.2%

C[C@@H](Nc1nc(NC2CCC2)nc(C2=CC(O)CCC2)n1)C(F)(F)F (mixture of isomers)
IC50 [1]: 39 nM | Papp B→A at 1 h, 10 µM [4]: 27.5 ×10⁻⁶ cm/s | Papp A→B at 1 h, 10 µM [5]: 41.4 ×10⁻⁶ cm/s | remaining at 0.5 h, 1 µM [6]: 34% | IC50 ([3]; Homo sapiens, U-87 MG, 72 h): 92 nM | remaining at 0.5 h, 1 µM [7]: 15.9%

CC(C)Nc1nc(N[C@H](C)C(F)(F)F)nc(C2=CCCCC2)n1
IC50 [1]: 21 nM | Papp B→A at 1 h, 10 µM [4]: 3.3 ×10⁻⁶ cm/s | Papp A→B at 1 h, 10 µM [5]: 0.9 ×10⁻⁶ cm/s | remaining at 0.5 h, 1 µM [6]: 13.6% | IC50 ([3]; Homo sapiens, U-87 MG, 72 h): 413 nM | remaining at 0.5 h, 1 µM [7]: 12.5%

CC(C)Nc1nc(N[C@H](C)C(F)(F)F)nc(C2=CCCC(F)C2)n1 (mixture of isomers)
IC50 [1]: 120 nM

CC(C)Nc1nc(N[C@H](C)C(F)(F)F)nc(C2(c3ccccc3)CC2)n1
IC50 [1]: 253 nM

C[C@@H](Nc1nc(N[C@H](C)C(F)(F)F)nc(C2=C(F)C(O)C(F)(F)CC2)n1)C(F)(F)F (mixture of isomers)
IC50 [1]: 28 nM | Papp B→A at 1 h, 10 µM [4]: 25.1 ×10⁻⁶ cm/s | Papp A→B at 1 h, 10 µM [5]: 50.4 ×10⁻⁶ cm/s | remaining at 0.5 h, 1 µM [6]: 102% | IC50 ([2]; u-87mg atcc): 210 nM | IC50 ([3]; u-87mg atcc): 94 nM | remaining at 0.5 h, 1 µM [7]: 95.2%

CCNc1nc(N[C@H](C)C(F)(F)F)nc(C2=CC(O)CCC2)n1 (mixture of isomers)
IC50 [1]: 68 nM | IC50 ([3]; Homo sapiens, U-87 MG, 72 h): 336 nM

C[C@@H](Nc1nc(NC2CCCC2)nc(C2=CC(O)CCC2)n1)C(F)(F)F (mixture of isomers)
IC50 [1]: 33 nM | Papp B→A at 1 h, 10 µM [4]: 13.6 ×10⁻⁶ cm/s | Papp A→B at 1 h, 10 µM [5]: 30.9 ×10⁻⁶ cm/s | IC50 ([2]; Homo sapiens, U-87 MG, 72 h): 733 nM | IC50 ([3]; Homo sapiens, U-87 MG, 72 h): 67 nM

CC(C)Nc1nc(N[C@H](C)C(F)(F)F)nc(C2=CC(O)CCC2)n1 (mixture of isomers)
IC50 [1]: 41 nM | Papp B→A at 1 h, 10 µM [4]: 34.6 ×10⁻⁶ cm/s | Papp A→B at 1 h, 10 µM [5]: 53.3 ×10⁻⁶ cm/s | remaining at 0.5 h, 1 µM [6]: 74.1% | IC50 ([2]; Homo sapiens, U-87 MG, 72 h): 658 nM | IC50 ([3]; Homo sapiens, U-87 MG, 72 h): 137 nM | remaining at 0.5 h, 1 µM [7]: 44.1%

C[C@@H](Nc1nc(NC(C)(C)C)nc(C2=CC(O)CCC2)n1)C(F)(F)F (mixture of isomers)
IC50 [1]: 111 nM | IC50 ([3]; Homo sapiens, U-87 MG, 72 h): 319 nM

CC(C)Nc1nc(N[C@H](C)C(F)(F)F)nc(C2=CCN(C)CC2)n1
IC50 [1]: > 3000 nM

C[C@@H](Nc1nc(NC2CC2)nc(C2=CC(O)CCC2)n1)C(F)(F)F (mixture of isomers)
IC50 [1]: 257 nM | IC50 ([3]; Homo sapiens, U-87 MG, 72 h): 171 nM

CC(C)Nc1nc(N[C@H](C)C(F)(F)F)nc(C2=CCOCC2)n1
IC50 [1]: 2340 nM

C[C@H](Nc1nc(N[C@@H](C)C(F)(F)F)nc(C2=C(F)C(O)C(F)(F)CC2)n1)C(F)(F)F (mixture of isomers)
IC50 [1]: 309 nM | IC50 ([2]; Homo sapiens, U-87 MG, 72 h): 1320 nM | IC50 ([3]; Homo sapiens, U-87 MG, 72 h): 174 nM

CC(C)Nc1nc(N[C@H](C)C(F)(F)F)nc(N2CCCCC2)n1
IC50 [1]: > 3000 nM

Source: ChEMBL document CHEMBL6103672, “Discovery of HMPL-306 (Ranosidenib), a New Potent and Selective Dual Inhibitor of Mutant IDH1 and 2 in Clinical Development for Cancer Treatment” (ACS Med Chem Lett, 2025)
